Experimental data published in PubChem BioAssay AID202 (DTP/NCI, 2004).
Where “and” joins values, the source holds several entries; their conditions need not be identical. Equal entries are not always repeated. *1 amine or outer side, *2 acyl side, *3 side chain or, on linkers, in order; H or OH if unused. Where a SMILES comes first, the peptide text is derived from it. Bridges are numbered along the chain shown (N, C = ends). Roman numbers before positions name the chains, in order. [ ]: non-standard residue; d: D form. Actinocin(9to1) = Cc1c2oc3c(C)ccc(C(=O)[*:1])c3nc-2c(C(=O)[*:2])c(N)c1=O; aThr = C[C@H](O)[C@H](N)C(=O)O; NMeV = CN[C@H](C(=O)O)C(C)C; Sar = CNCC(=O)O

System: HT29 xenograft, nude mice, s.c., tumor weight T/C%
Test: NCI In Vivo Anticancer Drug Screen. Data for tumor model HT29;CX-1 Human Adenocarcinoma (MER+) (subcutaneous) in NU/NU Swiss (nude) mice
Conditions: endpoint: optimum tumor weight change, higher = larger tumour
Method: The antitumor activity of compounds was measured in mice bearing transplantable tumors. Survival or tumor size were measured and the results are expressed as the measurement made in the treated group (T) divided by the measurement made in the vehicle treated control group (C). The tumor model used in this assay is HT29;CX-1 Human Adenocarcinoma (MER+) (subcutaneous) in NU/NU Swiss (nude) mice

[1] = dose: 100.0 mg/kg/injection, schedule: Q04DX003 (ip), vehicle: saline with Tween-80
[2] = dose: 50.0 mg/kg/injection, schedule: Q04DX003 (ip), vehicle: Klucel (hydroxypropylcellulose) (HPC)
[3] = dose: 50.0 mg/kg/injection, schedule: Q04DX003 (ip), vehicle: suspension in saline
[4] = dose: 25.0 mg/kg/injection, schedule: Q04DX003 (ip), vehicle: Klucel (hydroxypropylcellulose) (HPC)
[5] = dose: 100.0 mg/kg/injection, schedule: Q04DX003 (ip), vehicle: Klucel (hydroxypropylcellulose) (HPC)
[6] = dose: 200.0 mg/kg/injection, schedule: Q04DX003 (ip), vehicle: Klucel (hydroxypropylcellulose) (HPC)
[7] = dose: 3.0 mg/kg/injection, schedule: Q04DX003 (ip), vehicle: suspension in saline
[8] = dose: 6.0 mg/kg/injection, schedule: Q04DX003 (ip), vehicle: suspension in saline
[9] = dose: 12.0 mg/kg/injection, schedule: Q04DX003 (ip), vehicle: suspension in saline
[10] = dose: 12.5 mg/kg/injection, schedule: Q04DX003 (ip), vehicle: saline
[11] = dose: 25.0 mg/kg/injection, schedule: Q04DX003 (ip), vehicle: saline
[12] = dose: 50.0 mg/kg/injection, schedule: Q04DX003 (ip), vehicle: saline
[13] = dose: 100.0 mg/kg/injection, schedule: Q04DX003 (ip), vehicle: saline
[14] = dose: 200.0 mg/kg/injection, schedule: Q04DX003 (ip), vehicle: saline
[15] = dose: 100.0 mg/kg/injection, schedule: Q04DX003 (ip), vehicle: suspension in saline
[16] = dose: 12.5 mg/kg/injection, schedule: Q04DX003 (ip), vehicle: saline with Tween-80

O=C1N(Cl)C(=O)C(c2ccc(Cl)cc2)(c2ccc(Cl)cc2)N1Cl
T/C [1]: 103 % of control
T/C (dose: 200.0 mg/kg/injection, schedule: Q04DX003 (ip), vehicle: saline with Tween-80): 108 % of control

COc1cccc2c1C(=O)c1c(O)c3c(c(O)c1C2=O)C[C@@](O)(C(=O)CO)C[C@@H]3OC1CC(N)CC(C)O1 (stereo not given in full)
T/C (dose: 0.37 mg/kg/injection, schedule: Q04DX003 (ip), vehicle: water): 63 % of control
T/C (dose: 0.75 mg/kg/injection, schedule: Q04DX003 (ip), vehicle: water): 54 % of control
T/C (dose: 1.5 mg/kg/injection, schedule: Q04DX003 (ip), vehicle: water): 39 % of control

O=[N+]([O-])/C=C\c1ccc2c(c1)OCO2
T/C [2]: 116 % of control

O=P1(NCCCl)OCCCN1CCCl (stereo not given)
T/C (dose: 25.0 mg/kg/injection, schedule: Q04DX003 (ip), vehicle: suspension in saline): 78 % of control
T/C [3]: 108 % of control

CN(C)N=Nc1cn[nH]c1C(N)=O
T/C [4]: 69 % of control
T/C [2]: 123 % of control
T/C [5]: 79 % of control
T/C [6]: 88 % of control

O=Cc1ccc(O)c(O)c1
T/C [1]: 94 % of control

CC(=O)OCC(=O)[C@@]12OC(C)(C)O[C@@H]1C[C@H]1[C@@H]3CC(C=O)=C4C=C(OCCCl)CC[C@]4(C)[C@@]3(F)[C@@H](O)C[C@@]12C
T/C [4]: 52 % of control and 59 % of control

CS(=O)(=O)OCCN(CCOS(C)(=O)=O)c1ccc(C=Nc2ccc(-c3csc(COc4ccccc4)n3)cc2)cc1
T/C [5]: 71 % of control
T/C [6]: 70 % of control

C=C(C)[C@H]1Cc2c(ccc3c2O[C@@H]2COc4cc(OC)c(OC)cc4[C@@H]2C3=O)O1
T/C [7]: 90 % of control
T/C [8]: 77 % of control
T/C [9]: 91 % of control
T/C [10]: 70 % of control
T/C [11]: 102 % of control
T/C [12]: 50 % of control

CN(N=O)C(=O)N[C@@H](C=O)[C@@H](O)[C@H](O)[C@H](O)CO
T/C [13]: 82 % of control
T/C [14]: 98 % of control

COc1cccc2c1C(=O)c1c(O)c3c(c(O)c1C2=O)C[C@@](O)(/C(C)=N\O)C[C@@H]3OC1CC(N)C(O)C(C)O1 (stereo not given in full)
T/C (dose: 6.25 mg/kg/injection, schedule: Q04DX003 (ip), vehicle: saline): 68 % of control
T/C [10]: 63 % of control
T/C [11]: 56 % of control

CN(CO)c1nc(N(C)CO)nc(N(C)CO)n1
T/C (dose: 25.0 mg/kg/injection, schedule: Q01DX005 (ip), vehicle: Klucel (hydroxypropylcellulose) (HPC)): 75 % of control
T/C (dose: 25.0 mg/kg/injection, schedule: Q04DX005 (ip), vehicle: Klucel (hydroxypropylcellulose) (HPC)): 62 % of control
T/C (dose: 25.0 mg/kg/injection, schedule: Q07DX005 (ip), vehicle: Klucel (hydroxypropylcellulose) (HPC)): 93 % of control
T/C (dose: 50.0 mg/kg/injection, schedule: Q01DX005 (ip), vehicle: Klucel (hydroxypropylcellulose) (HPC)): 102 % of control and 123 % of control
T/C (dose: 50.0 mg/kg/injection, schedule: Q04DX005 (ip), vehicle: Klucel (hydroxypropylcellulose) (HPC)): 119 % of control and 120 % of control
T/C (dose: 50.0 mg/kg/injection, schedule: Q07DX005 (ip), vehicle: Klucel (hydroxypropylcellulose) (HPC)): 99 % of control
T/C [15]: 75 % of control
T/C (dose: 100.0 mg/kg/injection, schedule: Q04DX005 (ip), vehicle: Klucel (hydroxypropylcellulose) (HPC)): 99 % of control and 116 % of control
T/C (dose: 100.0 mg/kg/injection, schedule: Q07DX005 (ip), vehicle: Klucel (hydroxypropylcellulose) (HPC)): 48 % of control
T/C (dose: 200.0 mg/kg/injection, schedule: Q07DX005 (ip), vehicle: Klucel (hydroxypropylcellulose) (HPC)): 47 % of control and 58 % of control

CC(C)CCCCCCCCCCCCC(=O)NCC(=O)NC1C(O)C(O)C(Nc2ncnc3nc[nH]c23)OC1C(O)CO (stereo not given)
T/C [7]: 108 % of control and 110 % of control
T/C [8]: 67 % of control and 79 % of control
T/C [9]: 16 % of control and 40 % of control

COc1cccc2c1C(=O)c1c(O)c3c(c(O)c1C2=O)C[C@@](O)(C(=O)CO)C[C@@H]3OC1CC(N)C(OC)C(C)O1 (stereo not given in full)
T/C (dose: 1.56 mg/kg/injection, schedule: Q04DX003 (ip), vehicle: saline): 80 % of control

CSc1cc(=O)n2c3ccccc3c3ccnc1c32
T/C (dose: 20.0 mg/kg/injection, schedule: Q04DX003 (ip), vehicle: saline with Tween-80): 101 % of control
T/C (dose: 160.0 mg/kg/injection, schedule: Q04DX003 (ip), vehicle: saline with Tween-80): 89 % of control and 99 % of control
T/C (dose: 320.0 mg/kg/injection, schedule: Q04DX003 (ip), vehicle: saline with Tween-80): 82 % of control
T/C (dose: 640.0 mg/kg/injection, schedule: Q04DX003 (ip), vehicle: saline with Tween-80): 81 % of control

Nc1cc2[nH]cnc2c(=O)[nH]1
T/C [12]: 89 % of control
T/C [13]: 83 % of control
T/C [14]: 93 % of control

OCC1OC(n2cnc3cncnc32)C(O)C1O (stereo not given)
T/C [10]: 49 % of control
T/C [11]: 48 % of control

CC1OC(OC2CC(O)(C(=O)CO)Cc3c(O)c4c(c(O)c32)C(=O)c2ccccc2C4=O)CC(N)C1O (stereo not given)
T/C (dose: 0.25 mg/kg/injection, schedule: Q04DX003 (ip), vehicle: water): 89 % of control

CCCC(=O)OCc1cc(=O)n(C)c2c3c4c(cc12)c(C)cc(=O)n4CO3
T/C [2]: 53 % of control

CC(CN1CC(=O)NC(=O)C1)N1CC(=O)NC(=O)C1 (stereo not given)
T/C [3]: 73 % of control
T/C [15]: 50 % of control
T/C (dose: 200.0 mg/kg/injection, schedule: Q04DX003 (ip), vehicle: suspension in saline): 57 % of control

Cc1c2oc3c(C)ccc(C(=O)N[C@@H]4C(=O)N[C@H](C(C)C)C(=O)N5CCC[C@H]5C(=O)N(C)CC(=O)N(C)[C@@H](C(C)C)C(=O)O[C@H]4C)c3nc-2c(C(=O)N[C@@H]2C(=O)N[C@H](C(C)C)C(=O)N3CCC[C@H]3C(=O)N(C)CC(=O)N(C)[C@@H](C(C)C)C(=O)O[C@H]2C)c(N)c1=O (I: [aThr][dV]P[Sar][NMeV] / II: [aThr][dV]P[Sar][NMeV]; ester I:1-I:C, II:1-II:C; linker I:N-II:N via Actinocin(9to1))
T/C (dose: 150.0 micrograms/kg/injection, schedule: Q04DX003 (ip), vehicle: saline): 54 % of control
T/C (dose: 300.0 micrograms/kg/injection, schedule: Q04DX003 (ip), vehicle: saline): 42 % of control

O=C(O)C1(C(=O)O)CCC1.[NH2-].[NH2-].[Pt+2]
T/C (dose: 6.25 mg/kg/injection, schedule: Q04DX003 (ip), vehicle: dextrose): 109 % of control
T/C (dose: 25.0 mg/kg/injection, schedule: Q04DX003 (ip), vehicle: dextrose): 69 % of control

CC[C@](O)(C(=O)O)c1cc2n(c(=O)c1CO)Cc1cc3ccccc3nc1-2
T/C (dose: 9.0 mg/kg/injection, schedule: Q04DX003 (ip), vehicle: saline): 36 % of control

NC(Cc1ccc(N(CCCl)CCCl)cc1)C(=O)O (stereo not given)
T/C (dose: 5.0 mg/kg/injection, schedule: Q04DX003 (ip), vehicle: Klucel (hydroxypropylcellulose) (HPC)): 73 % of control

CN(C)N=Nc1ccccc1
T/C [4]: 64 % of control
T/C [2]: 83 % of control

CN1CCN(CCCN2c3ccccc3Sc3ccc(C(F)(F)F)cc32)CC1
T/C [12]: 79 % of control

O=C/C(Cl)=C(/Cl)C(=O)O
T/C [16]: 86 % of control

N=c1ccn2c(n1)OC1C(O)C(CO)OC12 (stereo not given)
T/C [12]: 70 % of control
T/C [13]: 49 % of control
T/C [14]: 71 % of control and 77 % of control
T/C (dose: 800.0 mg/kg/injection, schedule: Q04DX003 (ip), vehicle: saline): 40 % of control

CNC(=O)ON(C(C)=O)C(=O)NC
T/C [11]: 52 % of control
T/C [12]: 59 % of control
T/C [13]: 98 % of control

COc1cccc2c1C(=O)c1c(O)c3c(c(O)c1C2=O)C[C@@](O)(C(=O)CO)C[C@@H]3OC1CC(N)C(O)C(C)O1 (stereo not given in full)
T/C (dose: 2.0 mg/kg/injection, schedule: Q04DX003 (ip), vehicle: water): 83 % of control

CC(C)CCCCCCCCCCCCC(=O)NCC(=O)NC1C(C)OC(Nc2ncnc3nc[nH]c23)C(O)C1O (stereo not given)
T/C (dose: 3.13 mg/kg/injection, schedule: Q04DX003 (ip), vehicle: distilled water + Tween-80): 88 % of control
T/C (dose: 3.13 mg/kg/injection, schedule: Q04DX003 (ip), vehicle: saline with Tween-80): 58 % of control
T/C (dose: 6.25 mg/kg/injection, schedule: Q04DX003 (ip), vehicle: distilled water + Tween-80): 56 % of control and 66 % of control
T/C (dose: 6.25 mg/kg/injection, schedule: Q04DX003 (ip), vehicle: saline with Tween-80): 52 % of control
T/C (dose: 12.5 mg/kg/injection, schedule: Q04DX003 (ip), vehicle: distilled water + Tween-80): 55 % of control
T/C [16]: 40 % of control
T/C (dose: 25.0 mg/kg/injection, schedule: Q04DX003 (ip), vehicle: distilled water + Tween-80): 73 % of control
